Values after ≈ are worked out from the molar mass of the structure shown.

The test system of assay [1] is Escherichia coli. Nature of the assay: Antimicrobial activity against wild type Escherichia coli expressing AcrAB-TolC efflux pump. The assay is classed as functional.
The subject of assay [2] is Escherichia coli. Nature of the assay: Ratio of MIC for wild type Escherichia coli TG1 to MIC for acrB-deficient Escherichia coli KAM3 by two-fold serial dilution method. The assay is classed as functional.
The subject of assay [3] is Escherichia coli. The assay can be described thus: Ratio of MIC for wild type Escherichia coli JC7623 to MIC for acrAB-deficient Escherichia coli JZM120. The assay is classed as functional.
For assay [4], the system named is Salmonella typhimurium. The assay can be described thus: Ratio of MIC for wild type Salmonella typhimurium SH5014 to MIC for Salmonella typhimurium SH7616 harboring missense mutation in acrA/acrB gene by two-fold serial dilution method. The assay is classed as functional, Salmonella enterica subsp. enterica serovar Typhimurium.
In assay [5] the test system is Escherichia coli. Nature of the assay: Ratio of MIC for wild type Escherichia coli HS414 to MIC for acrB-deficient Escherichia coli HS832 by agar dilution method. The assay is classed as functional. Background: In agar dilution, organisms are placed on agar that contains the substance at set levels.
Assay [6] has as its system Escherichia coli. Nature of the assay: Ratio of MIC for wild type Escherichia coli ECM1194 to MIC for acrAB-deficient Escherichia coli ECM1694. The assay is classed as functional.

For the compound `CC1(C)S[C@@H]2[C@H](NC(=O)C(C(=O)O)c3ccccc3)C(=O)N2[C@H]1C(=O)O` (stereo partly specified) [CARBENICILLIN], in assay [1], 1.56 µg/mL (≈ 4.12 µM) was the least that counted as inhibitory (MIC). For the same compound, the Ratio turned out to be 1 in assay [2], 1 in assay [3] and 4 in assay [4].

Consider `CCn1cc(C(=O)O)c(=O)c2cc(F)c(N3CCNCC3)cc21` [NORFLOXACIN], for which the MIC in assay [1] stood at 0.004 µg/mL (≈ 0.0125 µM). Also, the Ratio in assay [5] was found to be 1.

On to `Cc1onc(-c2ccccc2Cl)c1C(=O)N[C@@H]1C(=O)N2[C@@H]1SC(C)(C)[C@@H]2C(=O)O` [CLOXACILLIN], for which, in assay [1], the MIC turned out to be 256 µg/mL (≈ 587 µM). Moreover, the Ratio came out at 128 in assay [2], 128 in assay [3] and 256 in assay [4].

Compound `CC(=O)NS(=O)(=O)c1ccc(N)cc1` [SULFACETAMIDE] had a minimal inhibitory concentration (MIC) in assay [1] of 2000 µg/mL (≈ 9340 µM). Moreover, the Ratio in assay [5] is on record as 1.

Turning to `NC(=O)c1cc[n+](CC2=C(C(=O)[O-])N3C(=O)[C@@H](NC(=O)[C@@H](c4ccccc4)S(=O)(=O)O)[C@H]3SC2)cc1` [CEFSULODIN], in assay [1], the MIC came out at 16 µg/mL (≈ 30 µM). Also, the Ratio in assay [3] and in assay [4] was 1 in each case.

With `C[n+]1c2cc(N)ccc2cc2ccc(N)cc21.[Cl-]` [EUFLAVINE], 400 µg/mL was the least that counted as inhibitory in assay [1] (MIC). Besides, the Ratio in assay [5] came to 128.

Take `CC1(C)S[C@@H]2[C@H](NC(=O)C(c3ccccc3)S(=O)(=O)O)C(=O)N2[C@H]1C(=O)O` (stereo partly specified) [SULBENICILLIN]: the MIC in assay [1] came to 8 µg/mL (≈ 19.3 µM). For the same compound, the Ratio in assay [2] is recorded as 1; in assay [4], 4.

As for `CCn1cc(C(=O)O)c(=O)c2ccc(C)nc21` [NALIDIXIC ACID], the MIC in assay [1] was 3.12 µg/mL (≈ 13.5 µM). The Ratio in assay [5] is listed as 2.

Regarding `Cc1onc(-c2ccccc2)c1C(=O)N[C@@H]1C(=O)N2[C@@H]1SC(C)(C)[C@@H]2C(=O)O` [OXACILLIN], in assay [1], 1020 µg/mL (≈ 2550 µM) was the least that counted as inhibitory (MIC). The Ratio in assay [2] is on record as 256; in assay [3] it was 512.

`CC(=O)OCC1=C(C(=O)O)N2C(=O)[C@@H](NC(=O)CCC[C@@H](N)C(=O)O)[C@H]2SC1` [CEPHALOSPORIN C]: in assay [1], the MIC was 16 µg/mL (≈ 38.5 µM). The Ratio in assay [4] is reported as 1.

Regarding `Cc1nnc(SCC2=C(C(=O)O)N3C(=O)[C@@H](NC(=O)Cn4cnnn4)[C@H]3SC2)s1` [CEFAZOLIN], in assay [1], the MIC stood at 0.39 µg/mL (≈ 0.858 µM). Also, the Ratio in assay [3] and in assay [4] was 1 in each case.

In assay [1], `CN(C)[C@@H]1C(O)=C(C(N)=O)C(=O)[C@@]2(O)C(O)=C3C(=O)c4c(O)cccc4[C@@](C)(O)[C@H]3C[C@@H]12` [TETRACYCLINE] yielded a minimal inhibitory concentration (MIC) of 1.25 µg/mL (≈ 2.81 µM). Also, the Ratio in assay [5] was determined as 8.

As to `CO[C@@]1(NC(=O)Cc2cccs2)C(=O)N2C(C(=O)O)=C(COC(N)=O)CS[C@@H]21` [CEFOXITIN], inhibition of growth in assay [1] (MIC) required 4 µg/mL (≈ 9.36 µM). In addition, the Ratio in assay [3] and in assay [4] was 4 in each case.

Compound `CO[C@@]1(NC(=O)C(C(=O)[O-])c2ccc(O)cc2)C(=O)N2C(C(=O)[O-])=C(CSc3nnnn3C)CO[C@@H]21.[Na+].[Na+]` (stereo partly specified) [MOXALACTAM DISODIUM] registered an MIC in assay [1] of 0.12 µg/mL. Further, in assay [4], the Ratio came to 1.

In turn, `Cn1nnnc1SCC1=C(C(=O)O)N2C(=O)[C@@H](NC(=O)[C@H](O)c3ccccc3)[C@H]2SC1` [CEFAMANDOLE] returned an MIC in assay [1] of 4 µg/mL (≈ 8.65 µM). Further, the Ratio in assay [2] and in assay [3] was 4 in each case.

`CC1(C)S[C@@H]2[C@H](NC(=O)[C@H](NC(=O)N3CCN(S(C)(=O)=O)C3=O)c3ccccc3)C(=O)N2[C@H]1C(=O)O` [MEZLOCILLIN] yielded an MIC in assay [1] of 1 µg/mL (≈ 1.85 µM). In addition, the Ratio in assay [3] is 32.

Consider `CCN1CCN(C(=O)N[C@@H](C(=O)N[C@@H]2C(=O)N3[C@@H]2SC(C)(C)[C@@H]3C(=O)O)c2ccccc2)C(=O)C1=O` [PIPERACILLIN], for which, in assay [1], the MIC is 4 µg/mL (≈ 7.73 µM).

Turning to `C[C@@H](O)[C@H]1C(=O)N2C(C(=O)O)=C([C@H]3CCCO3)S[C@H]12` [FAROPENEM], the MIC in assay [1] was 0.39 µg/mL (≈ 1.37 µM). In assay [2], the Ratio was found to be 4.

Compound `CC1(C)S[C@@H]2[C@H](NC(=O)CCC[C@@H](N)C(=O)O)C(=O)N2[C@H]1C(=O)O` [ADICILLIN] returned an MIC in assay [1] of 8 µg/mL (≈ 22.3 µM). Further, the Ratio in assay [4] was found to be 1.

In assay [1], `CCN1CCN(C(=O)N[C@@H](C(=O)N[C@@H]2C(=O)N3C(C(=O)O)=C(CSc4nnnn4C)CS[C@H]23)c2ccc(O)cc2)C(=O)C1=O` [CEFOPERAZONE] came in with an MIC of 0.03 µg/mL (≈ 0.0465 µM). Further, the Ratio in assay [3] is recorded as 2.

`CO/N=C(\C(=O)N[C@@H]1C(=O)N2C(C(=O)O)=C(COC(N)=O)CS[C@H]12)c1ccco1` [CEFUROXIME]: the lowest concentration to inhibit growth in assay [1] (MIC) was 1.56 µg/mL (≈ 3.68 µM). The Ratio was found to be 8 in assay [2] and 16 in assay [3].

For the compound `CO[C@@]1(NC(=O)CSCC#N)C(=O)N2C(C(=O)O)=C(CSc3nnnn3C)CS[C@@H]21` [CEFMETAZOLE], inhibition of growth in assay [1] (MIC) required 0.05 µg/mL (≈ 0.106 µM). In addition, the values for the Ratio in assay [2], in assay [3] and in assay [4] were 2, 1 and 1, respectively.

`CO/N=C(\C(=O)N[C@@H]1C(=O)N2C(C(=O)O)=C(COC(C)=O)CS[C@H]12)c1csc(N)n1` [CEFOTAXIME] displayed an MIC in assay [1] of 0.12 µg/mL (≈ 0.263 µM). The Ratio in assay [2] amounted to 2; in assay [4], 4.

With `CO/N=C(\C(=O)N[C@@H]1C(=O)N2C(C(=O)[O-])=C(C[N+]3(C)CCCC3)CS[C@H]12)c1csc(N)n1`, it took 0.0075 µg/mL (≈ 0.0156 µM) to inhibit growth in assay [1] (MIC). The Ratio in assay [3] and in assay [4] was 1 each time.

Take `CC1(C)S[C@@H]2[C@H](NC(=O)[C@H](NC(=O)N3CCNC3=O)c3ccccc3)C(=O)N2[C@H]1C(=O)O` [AZLOCILLIN]: it took 16 µg/mL (≈ 34.7 µM) to inhibit growth in assay [1] (MIC). The Ratio in assay [3] was 4.

In assay [1], `CC(C)(O/N=C(\C(=O)N[C@@H]1C(=O)N2C(C(=O)[O-])=C(C[n+]3ccccc3)CS[C@H]12)c1csc(N)n1)C(=O)O` [CEFTAZIDIME] yielded an MIC of 0.12 µg/mL (≈ 0.22 µM). Besides, in assay [3], the Ratio stood at 1.

In the case of `C[C@H]1[C@H](NC(=O)/C(=N\OC(C)(C)C(=O)O)c2csc(N)n2)C(=O)N1S(=O)(=O)O` [AZTREONAM], the lowest concentration to inhibit growth in assay [1] (MIC) was 0.05 µg/mL (≈ 0.115 µM). Besides, in assay [2], the Ratio came out at 1.

On to `CO/N=C(\C(=O)N[C@@H]1C(=O)N2C(C(=O)[O-])=C(C[n+]3cccc4c3CCC4)CS[C@H]12)c1csc(N)n1` [CEFPIROME], for which the MIC in assay [1] was found to be 0.015 µg/mL (≈ 0.0291 µM). Further, in assay [3], the Ratio came to 1.

With `CCOc1ccc2ccccc2c1C(=O)N[C@@H]1C(=O)N2[C@@H]1SC(C)(C)[C@@H]2C(=O)O` [NAFCILLIN], the lowest concentration to inhibit growth in assay [1] (MIC) was 200 µg/mL (≈ 483 µM). In addition, the Ratio in assay [2] was found to be 128.

Take `CS(=O)(=O)c1ccc([C@@H](O)[C@@H](CF)NC(=O)C(Cl)Cl)cc1` [FLORFENICOL]: in assay [1], the MIC is 6.25 µg/mL (≈ 17.4 µM). Also, the Ratio in assay [5] came to 8.

The compound `CO/N=C(\C(=O)N[C@@H]1C(=O)N2C(C(=O)O)=C(CSc3nc(=O)c(O)nn3C)CS[C@H]12)c1csc(N)n1` [CEFTRIAXONE] gave an MIC in assay [1] of 0.015 µg/mL (≈ 0.027 µM). Further, the Ratio in assay [3] came to 1; in assay [4], 2.

The compound `O=C(N[C@H](CO)[C@H](O)c1ccc([N+](=O)[O-])cc1)C(Cl)Cl` [CHLORAMPHENICOL] came in with an MIC in assay [1] of 4 µg/mL (≈ 12.4 µM). Moreover, the figures for the Ratio in assay [6] and in assay [5] were 4 and 8, respectively.

For the compound `O=C(Cc1cccs1)N[C@@H]1C(=O)N2C(C(=O)[O-])=C(C[n+]3ccccc3)CS[C@H]12` [CEPHALORIDINE], in assay [1], the MIC amounted to 2 µg/mL (≈ 4.81 µM). For the same compound, the Ratio in assay [3] and in assay [4] was 2 throughout.

`CC(=O)OCC1=C(C(=O)O)N2C(=O)[C@@H](NC(=O)Cc3cccs3)[C@H]2SC1` [CEPHALOTHIN] showed an MIC in assay [1] of 2 µg/mL (≈ 5.04 µM).

Turning to `CC1(C)S[C@@H]2[C@H](NC(=O)Cc3ccccc3)C(=O)N2[C@H]1C(=O)O` [PENICILLIN G], the MIC in assay [1] is 8 µg/mL (≈ 23.9 µM). Moreover, the Ratio in assay [3] worked out at 2; in assay [4], 32.

The compound `CN(Cc1cnc2nc(N)nc(N)c2n1)c1ccc(C(=O)N[C@@H](CCC(=O)O)C(=O)O)cc1` [METHOTREXATE] gave an MIC in assay [1] of 640 µg/mL (≈ 1410 µM). Further, in assay [5], the Ratio was 8.

In turn, `CC1(C)S[C@@H]2[C@H](/N=C/N3CCCCCC3)C(=O)N2[C@H]1C(=O)O` [AMDINOCILLIN] returned an MIC in assay [1] of 0.5 µg/mL (≈ 1.54 µM). Also, the Ratio in assay [3] came out at 2.

The compound `CC1(C)S[C@@H]2[C@H](NC(=O)[C@H](N)c3ccc(O)cc3)C(=O)N2[C@H]1C(=O)O` [AMOXICILLIN] yielded an MIC in assay [1] of 4 µg/mL (≈ 10.9 µM). For the same compound, the Ratio in assay [3] came out at 1.

`Nc1ccc2cc3ccc(N)cc3nc2c1` [PROFLAVINE] returned an MIC in assay [1] of 100 µg/mL (≈ 478 µM). For the same compound, the Ratio in assay [5] is 8.

As for `CC[n+]1c(-c2ccccc2)c2cc(N)ccc2c2ccc(N)cc21.[Br-]` [HOMIDIUM BROMIDE], in assay [1], the MIC was 800 µg/mL. In addition, the Ratio in assay [5] is listed as 256.

In assay [1], `CO[C@@H]1[C@@H](OC(N)=O)[C@@H](O)[C@H](Oc2ccc3c(O)c(NC(=O)c4ccc(O)c(CC=C(C)C)c4)c(=O)oc3c2C)OC1(C)C` [NOVOBIOCIN] had an MIC of 32 µg/mL (≈ 52.2 µM). Further, the Ratio in assay [2] is given as 64; in assay [3] it was 32; in assay [5], 64.

By MIC is commonly meant the least concentration at which growth counts as inhibited.

These data come from ChEMBL document CHEMBL2021919, “Computational analysis of structure-based interactions and ligand properties can predict efflux effects on antibiotics” (2012).
